# Measured values reported in PubChem BioAssay AID504934 (The Scripps Research Institute Molecular Screening Center, 2011).
# Activity calls are given as the source filed them. No rule for the calls is given here.
# Assays:
# Assay in all cases: PubChem AID 504934
# PNR = conditions: nuclear receptor panel Gal4 luciferase reporter, at 10 µM
# LXRa = conditions: nuclear receptor panel Gal4 luciferase reporter, at 10 µM
# THRb = conditions: nuclear receptor panel Gal4 luciferase reporter, at 10 µM
# ERRa = conditions: nuclear receptor panel Gal4 luciferase reporter, at 10 µM
# CAR = conditions: nuclear receptor panel Gal4 luciferase reporter, at 10 µM
# TLX = conditions: nuclear receptor panel Gal4 luciferase reporter, at 10 µM
# RORb = conditions: nuclear receptor panel Gal4 luciferase reporter, at 10 µM
# Rev-erb a = conditions: nuclear receptor panel Gal4 luciferase reporter, at 10 µM
# Nurr1 = conditions: nuclear receptor panel Gal4 luciferase reporter, at 10 µM
# [1] = target: Retinoic acid receptor alpha (Homo sapiens) (UniProt P10276); conditions: nuclear receptor panel Gal4 luciferase reporter, RARa, at 10 µM
# Sequence of Retinoic acid receptor alpha (Homo sapiens) (P10276 whole entry, looked up, the tested form may be a part): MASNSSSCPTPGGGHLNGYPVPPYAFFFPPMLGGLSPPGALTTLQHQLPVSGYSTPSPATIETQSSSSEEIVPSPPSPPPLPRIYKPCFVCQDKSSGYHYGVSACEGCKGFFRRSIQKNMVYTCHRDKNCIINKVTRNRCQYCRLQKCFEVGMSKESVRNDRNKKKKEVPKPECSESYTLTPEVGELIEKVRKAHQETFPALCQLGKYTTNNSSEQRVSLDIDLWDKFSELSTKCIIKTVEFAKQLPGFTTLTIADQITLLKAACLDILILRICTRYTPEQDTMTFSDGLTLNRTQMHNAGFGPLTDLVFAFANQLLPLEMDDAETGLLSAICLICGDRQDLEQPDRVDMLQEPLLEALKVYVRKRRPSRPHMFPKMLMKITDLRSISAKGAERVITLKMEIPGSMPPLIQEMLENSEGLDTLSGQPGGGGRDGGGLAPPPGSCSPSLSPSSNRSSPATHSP
# [2] = target: Nuclear receptor subfamily 1 group I member 2 (Homo sapiens) (UniProt O75469); conditions: nuclear receptor panel Gal4 luciferase reporter, PXR, at 10 µM
# Sequence of Nuclear receptor subfamily 1 group I member 2 (Homo sapiens) (O75469 whole entry, looked up, the tested form may be a part): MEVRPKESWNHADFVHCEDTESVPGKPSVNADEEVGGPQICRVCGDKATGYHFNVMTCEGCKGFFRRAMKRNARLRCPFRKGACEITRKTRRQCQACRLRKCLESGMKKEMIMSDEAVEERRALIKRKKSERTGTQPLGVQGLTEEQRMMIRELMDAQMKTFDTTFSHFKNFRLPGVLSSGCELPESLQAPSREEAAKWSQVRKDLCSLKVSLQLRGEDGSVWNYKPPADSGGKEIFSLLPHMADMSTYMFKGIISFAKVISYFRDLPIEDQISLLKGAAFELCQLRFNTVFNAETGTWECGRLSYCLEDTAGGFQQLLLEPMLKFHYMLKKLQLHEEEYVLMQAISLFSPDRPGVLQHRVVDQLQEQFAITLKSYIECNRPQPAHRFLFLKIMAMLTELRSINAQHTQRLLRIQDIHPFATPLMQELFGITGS
# SHP = conditions: nuclear receptor panel Gal4 luciferase reporter, at 10 µM
# HNF4g = conditions: nuclear receptor panel Gal4 luciferase reporter, at 10 µM
# TR4 = conditions: nuclear receptor panel Gal4 luciferase reporter, at 10 µM
# [3] = target: Nuclear receptor ROR-alpha (Homo sapiens) (UniProt P35398); conditions: nuclear receptor panel Gal4 luciferase reporter, RORa, at 10 µM
# Sequence of Nuclear receptor ROR-alpha (Homo sapiens) (P35398 whole entry, looked up, the tested form may be a part): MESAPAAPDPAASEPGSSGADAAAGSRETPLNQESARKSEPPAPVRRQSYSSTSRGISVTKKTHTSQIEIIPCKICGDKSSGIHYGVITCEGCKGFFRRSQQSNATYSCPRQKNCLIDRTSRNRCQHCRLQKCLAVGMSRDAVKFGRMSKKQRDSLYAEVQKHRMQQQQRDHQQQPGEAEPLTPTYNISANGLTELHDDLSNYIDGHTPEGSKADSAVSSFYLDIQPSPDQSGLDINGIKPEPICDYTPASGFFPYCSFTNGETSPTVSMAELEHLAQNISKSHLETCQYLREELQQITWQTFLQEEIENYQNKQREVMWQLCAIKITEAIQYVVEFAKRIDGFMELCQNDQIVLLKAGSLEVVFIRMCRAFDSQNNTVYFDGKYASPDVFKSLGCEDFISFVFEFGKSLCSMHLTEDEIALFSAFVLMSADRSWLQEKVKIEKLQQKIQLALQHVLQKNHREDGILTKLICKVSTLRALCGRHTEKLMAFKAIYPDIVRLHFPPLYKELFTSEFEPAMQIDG
# RARg = conditions: nuclear receptor panel Gal4 luciferase reporter, at 10 µM
# [4] = target: Nuclear receptor subfamily 5 group A member 2 (Homo sapiens) (UniProt O00482); conditions: nuclear receptor panel Gal4 luciferase reporter, LRH1, at 10 µM
# Sequence of Nuclear receptor subfamily 5 group A member 2 (Homo sapiens) (O00482 whole entry, looked up, the tested form may be a part): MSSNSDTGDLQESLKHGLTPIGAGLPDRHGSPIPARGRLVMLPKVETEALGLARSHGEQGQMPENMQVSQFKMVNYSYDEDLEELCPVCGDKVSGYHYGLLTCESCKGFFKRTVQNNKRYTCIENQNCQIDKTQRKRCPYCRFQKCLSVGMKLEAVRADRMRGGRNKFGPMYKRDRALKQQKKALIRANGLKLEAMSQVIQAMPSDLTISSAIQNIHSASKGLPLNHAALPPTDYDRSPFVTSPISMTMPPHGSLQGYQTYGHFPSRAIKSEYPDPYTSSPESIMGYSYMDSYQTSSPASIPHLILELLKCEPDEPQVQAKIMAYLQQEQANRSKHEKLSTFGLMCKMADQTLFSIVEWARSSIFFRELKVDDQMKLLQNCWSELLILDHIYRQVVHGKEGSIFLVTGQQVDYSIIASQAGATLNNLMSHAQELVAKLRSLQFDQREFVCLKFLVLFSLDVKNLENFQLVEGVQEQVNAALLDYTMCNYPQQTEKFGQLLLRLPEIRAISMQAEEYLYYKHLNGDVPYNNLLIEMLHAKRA
# ERRg = conditions: nuclear receptor panel Gal4 luciferase reporter, at 10 µM
# THRa = conditions: nuclear receptor panel Gal4 luciferase reporter, at 10 µM
# [5] = target: Oxysterols receptor LXR-beta (Homo sapiens) (UniProt P55055); conditions: nuclear receptor panel Gal4 luciferase reporter, LXRb, at 10 µM
# Sequence of Oxysterols receptor LXR-beta (Homo sapiens) (P55055 whole entry, looked up, the tested form may be a part): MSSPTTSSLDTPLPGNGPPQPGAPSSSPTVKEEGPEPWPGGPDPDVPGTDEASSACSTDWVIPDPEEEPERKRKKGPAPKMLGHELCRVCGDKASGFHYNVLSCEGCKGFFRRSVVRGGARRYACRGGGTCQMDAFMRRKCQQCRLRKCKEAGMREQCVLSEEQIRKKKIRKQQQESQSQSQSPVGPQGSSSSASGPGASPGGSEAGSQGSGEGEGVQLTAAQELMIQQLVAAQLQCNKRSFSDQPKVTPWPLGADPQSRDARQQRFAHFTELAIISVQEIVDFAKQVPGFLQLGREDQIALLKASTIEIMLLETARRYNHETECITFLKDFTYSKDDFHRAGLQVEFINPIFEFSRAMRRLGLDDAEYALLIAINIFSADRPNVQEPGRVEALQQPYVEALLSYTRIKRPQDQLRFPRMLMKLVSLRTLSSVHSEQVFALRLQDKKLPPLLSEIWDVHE
# [6] = target: Retinoic acid receptor RXR-alpha (Homo sapiens) (UniProt P19793); conditions: nuclear receptor panel Gal4 luciferase reporter, RXRa, at 10 µM
# Sequence of Retinoic acid receptor RXR-alpha (Homo sapiens) (P19793 whole entry, looked up, the tested form may be a part): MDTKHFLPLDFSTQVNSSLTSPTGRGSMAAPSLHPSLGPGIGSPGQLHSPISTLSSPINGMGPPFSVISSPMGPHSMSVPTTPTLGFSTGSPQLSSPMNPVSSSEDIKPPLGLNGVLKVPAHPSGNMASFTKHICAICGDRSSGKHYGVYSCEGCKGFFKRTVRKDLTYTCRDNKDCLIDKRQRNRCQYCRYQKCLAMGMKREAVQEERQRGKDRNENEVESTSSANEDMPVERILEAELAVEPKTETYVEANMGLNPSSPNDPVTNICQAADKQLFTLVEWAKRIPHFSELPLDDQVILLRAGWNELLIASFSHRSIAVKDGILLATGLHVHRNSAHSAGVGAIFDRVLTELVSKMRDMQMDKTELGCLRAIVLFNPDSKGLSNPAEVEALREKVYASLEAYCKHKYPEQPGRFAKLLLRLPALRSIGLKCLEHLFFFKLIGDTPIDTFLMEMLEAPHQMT
# MR = conditions: nuclear receptor panel Gal4 luciferase reporter, at 10 µM
# pBIND-1 = conditions: nuclear receptor panel Gal4 luciferase reporter, at 10 µM
# VDR = conditions: nuclear receptor panel Gal4 luciferase reporter, at 10 µM
structure (smiles),measurement,setting,value
O=c1cc(N2CCN(c3cccc(Cl)c3)CC2)[nH]c(=O)n1C1CCCCC1,fold change,PNR,0.72
same,fold change,LXRa,1.27
same,fold change,THRb,1.06 (inactive)
same,fold change,ERRa,1.34
same,fold change,CAR,0.38
same,fold change,TLX,0.88 (inactive)
same,fold change,RORb,0.82 (inactive)
same,fold change,Rev-erb a,0.84 (inactive)
same,fold change,Nurr1,0.79
same,fold change,[1],0.47
same,fold change,[2],1.26
same,fold change,SHP,0.86 (inactive)
same,fold change,HNF4g,0.44
same,fold change,TR4,0.8
same,fold change,[3],1 (inactive)
same,fold change,RARg,0.56
same,fold change,[4],0.88 (inactive)
same,fold change,ERRg,0.49
same,fold change,THRa,1.69
same,fold change,[5],1.9 (inactive)
same,fold change,[6],0.75
same,fold change,MR,1.41
same,fold change,pBIND-1,1.28
same,fold change,VDR,0.83 (inactive)
